Measured values as given in patent US4767718A, “Fluorescent opioid reagents and methods of use thereof in the detection of opioid receptors” (Southern Illinois University Foundation, priority 1984, dated 1988).
Entries after “also recorded” stand apart in the source; their conditions may differ. Read-outs that look alike come from different tables or passages of the source.

Experiments:
[1] = target: T1, opioid receptor (rat brain synaptosomal plasma membranes) (Rattus norvegicus, UniProt P33535); assay: displacement of ^3H-dihydromorphine (^3H-DHM) from rat brain synaptosomal plasma membranes; format: binding; conditions: for Hill coefficient: ^3H-DHM displacement; for binding activity for use in detection and quantification of receptor sites: synaptosomal membranes, in words
T1 construct: from rat brain synaptosomal plasma membranes; from tissue; host or cells: rat brain synaptosomal plasma membranes

[2] = target: T2, opioid receptor sites, ^3H-DHM indicator ligand (Rattus norvegicus, UniProt P33535); assay: site selectivity analysis (Terenius and Wahlstrom), displacement of labeled ^3H-DHM in presence of cold DALE; format: binding
T2 construct: from rat brain synaptosomal plasma membranes; from tissue; host or cells: rat brain synaptosomal plasma membranes (inferred from the sister test; b86 says only 'a substrate')
Text: (§1) In FIG. 1 it will be noted that compounds which displace the two indicator ligands differently provide a curve which is convex towards the axis of the labeled indicator ligand which is less favorably displaced.

[3] = target: T3, opioid receptor sites, ^3H-DALE indicator ligand (Rattus norvegicus, UniProt P33533); assay: site selectivity analysis (Terenius and Wahlstrom), displacement of labeled ^3H-DALE in presence of cold DHM; format: binding
T3 construct: from rat brain synaptosomal plasma membranes; from tissue; host or cells: rat brain synaptosomal plasma membranes (inferred from the sister test; b86 says only 'a substrate')
Text: as §1

[4] = test system: guinea pig ileum longitudinal muscle; assay: electrically stimulated guinea pig ileum longitudinal muscle preparation; conditions: for persistence of antagonist effect on washing of ileum: after washing
Procedure: 6-FN was tested for activity on an electrically stimulated guinea pig ileum longitudinal muscle preparation. In this test, a specimen of guinea pig ileum was stretched between two wires in a nutrient solution (2.5 mil.) and stimulated supramaximally at 0.1 Hz. In the absence of opioid agonists and antagonists electrical stimulation of the muscle results in contraction.

[5] = fluorescence and absorption properties; format: physicochemical; conditions: for emission maximum / excitation maximum: pH 7 phosphate buffer, 10^-6 M solution
Procedure: The container was wrapped in aluminium foil. Thereafter, portions of ethyl alcohol and water were added to the reaction mixture.

[6] = hygroscopicity of sample submitted for elemental analysis; format: physicochemical
[7] = determined graphically, rat brain synaptosomal plasma membranes

T1 sequence (P33535 whole entry): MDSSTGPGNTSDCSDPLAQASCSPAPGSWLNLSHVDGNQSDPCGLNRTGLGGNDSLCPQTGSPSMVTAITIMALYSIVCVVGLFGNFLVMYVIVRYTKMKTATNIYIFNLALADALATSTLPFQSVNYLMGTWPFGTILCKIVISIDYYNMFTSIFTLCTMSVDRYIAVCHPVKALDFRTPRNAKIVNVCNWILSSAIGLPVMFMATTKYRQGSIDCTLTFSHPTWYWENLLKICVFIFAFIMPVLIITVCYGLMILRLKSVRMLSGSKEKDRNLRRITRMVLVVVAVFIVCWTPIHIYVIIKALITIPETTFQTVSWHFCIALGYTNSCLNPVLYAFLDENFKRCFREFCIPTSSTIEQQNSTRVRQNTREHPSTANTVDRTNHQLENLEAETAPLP
T2 sequence (P33535 whole entry): as above
T3 sequence (P33533 whole entry): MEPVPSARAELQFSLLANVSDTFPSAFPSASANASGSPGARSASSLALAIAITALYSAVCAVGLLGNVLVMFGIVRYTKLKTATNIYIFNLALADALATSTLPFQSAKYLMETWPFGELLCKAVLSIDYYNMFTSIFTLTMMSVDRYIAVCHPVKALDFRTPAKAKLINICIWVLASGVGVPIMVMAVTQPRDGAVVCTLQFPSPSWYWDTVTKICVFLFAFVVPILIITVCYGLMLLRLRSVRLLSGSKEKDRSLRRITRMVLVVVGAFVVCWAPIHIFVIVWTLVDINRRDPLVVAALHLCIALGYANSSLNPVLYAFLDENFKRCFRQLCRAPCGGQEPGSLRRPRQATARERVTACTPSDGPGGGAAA

C=CCN1CC[C@]23c4c5ccc(O)c4O[C@H]2C(=NNC(=S)Nc2ccc4c(c2)C(=O)OC42c4ccc(O)cc4Oc4cc(O)ccc42)CC[C@@]3(O)[C@H]1C5 [6-FN, 1-(N)-Fluoresceinyl Naloxone Thiosemicarbazone]
Hill coefficient [1]: 0.671
IC50 [1, 7]: 20 nM
binding activity for use in detection and quantification of receptor sites [1]: sufficient binding activity
IC50 [2]: 12 nM
site selectivity compared with naloxone (FIG. 1) ([2]; percent bound DALE* versus percent bound DHM*, in words): show clearly the difference between 6-FN and naloxone with respect to site selectivity
IC50 [3]: 17 nM
agonist activity of 6-FN ([4]; 10^-6 M 6-FN, FIG. 2): slight agonist effect; also recorded: partial agonist activity
persistence of antagonist effect on washing of ileum [4]: did not readily eliminate the antagonist effect
antagonist effect with respect to normorphine ([4]; final 6-FN concentration 10^-7 M, prior to normorphine): antagonist effect; also recorded: significantly inhibited the agonist effect of normorphine
antagonist effect compared with inhibiting effect of naloxone ([4]; inhibition of normorphine agonist effect): ten times less effective
fluorescence polarization [5]: 0.038
absorption maximum ([5]; 10^-5 M solution, phosphate buffer): 493 nm
absorbance A at absorption maximum ([5]; 10^-5 M solution, phosphate buffer, 493 nm): 0.410
quantum yield compared to free fluorescein ([5]; 10^-9 M): about 67%
emission maximum [5]: 513 nm
excitation maximum [5]: 493 nm

O=C1OC2(c3ccc(O)cc3Oc3cc(O)ccc32)c2ccc(NC(=S)NN=C3CC[C@@]4(O)[C@H]5Cc6ccc(O)c7c6[C@@]4(CCN5CC4CC4)[C@H]3O7)cc21 [6-FNX, 1-(N)-fluoresceinyl naltrexone thiosemicarbazone]
IC50 [1]: 5 nM
Hill coefficient [1]: 0.675
binding activity for use in detection and quantification of receptor sites [1]: sufficient binding activity

CN1CC[C@]23c4c5ccc(O)c4O[C@H]2C(=NNC(=S)Nc2ccc4c(c2)C(=O)OC42c4ccc(O)cc4Oc4cc(O)ccc42)CC[C@@]3(O)[C@H]1C5 [6-FO, 1-(N)-Fluoresceinyl Oxymorphone thiosemicarbazone]
Hill coefficient [1]: 0.989
IC50 [1, 7]: 20 nM
binding activity for use in detection and quantification of receptor sites [1]: sufficient binding activity
hygroscopicity [6]: very hygroscopic

C=CCN1CC[C@]23c4c5ccc(O)c4O[C@H]2C(=NNC(=S)Nc2ccc4c(c2)C(=O)OC42c4ccc(N(C)C)cc4Oc4cc(N(C)C)ccc42)CC[C@@]3(O)[C@H]1C5 [6-RN, 1-(N)-tetramethylrhodaminyl-B-naloxone Thiosemicarbazone]
Hill coefficient [1]: 1.09
binding activity for use in detection and quantification of receptor sites [1]: sufficient binding activity

O=C1OC2(c3ccc(O)cc3Oc3cc(O)ccc32)c2ccccc21 [free fluorescein, fluorescein, reference compound]
fluorescence polarization [5]: 0.022
emission maximum [5]: 510-511 nm
excitation maximum [5]: 493 nm

C=CCN1CC[C@]23c4c5ccc(O)c4O[C@H]2C(=O)CC[C@@]3(O)[C@H]1C5 [naloxone, reference compound]
reversal of 6-FN partial agonist activity by naloxone ([4]; 10^-7 M naloxone versus 10^-6 M 6-FN): reversible
antagonist effect of naloxone with respect to 6-FN ([4]; FIG. 2 legend): antagonist effect
persistence of antagonist effect on washing of ileum [4]: similar

Oc1ccc2c3c1O[C@H]1[C@@H](O)C=C[C@H]4[C@@H](C2)NCC[C@@]341 [normorphine, reference compound]
agonist effect, inhibition of contraction of ileum ([4]; normorphine 25 microliters, 10^-7 M): agonist effect; also recorded: substantially inhibited contraction of the muscle
